Assay results: PubChem BioAssay (NCI)
Values joined by “and” are separate entries in the source; they are usually repeats but may differ in a detail not shown here. Equal values may be shown once.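 In this assay, cells in 96-well plates receive the compound at five concentrations for 48 hours. Endpoints are linearly interpolated between the surrounding concentrations. Abbreviation: GI50, concentration required for 50% inhibition of growth. TGI is the concentration that stops growth completely.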

System: MDA-MB-468 breast
Assay: NCI-60 cell line screen, 48 h

Row | Compound | GI50 | TGI
1 | N#CSCc1ccc(Cl)c(CSC#N)c1 | 0.129 µM | 32.6 µM
2 | CCC[CH2][Sn]1([CH2]CCC)[O]C2C(CO)OC(n3ccc(N)nc3=O)C2[O]1 (stereo unspecified) | 0.471 µM | 2 µM
3 | O=C1C(SCCO)=C(SCCO)C(=O)N1c1ccc(-c2ccccc2)cc1 | 0.534 µM | 1.5 µM
4 | O=[N+]([O-])c1ccc(N=Nc2ccc(O)c3ccccc23)cc1 | 3.26 µM | 30.6 µM
5 | COc1cc(OC)c(C(=O)/C=C/c2cccc(C#N)c2)c(OC)c1 | 0.792 µM | 2.46 µM
6 | Nc1c(C(=O)c2cccc(C#CCO)c2)cnn1-c1ccc(F)cc1 | > 25 µM | > 25 µM
7 | Cc1ccc2c(n1)C(=O)C(Cl)=C(Nc1cccc(C(F)(F)F)c1)C2=O | 1.77 µM | 3.66 µM
8 | COc1ccccc1CNCCCN1C(=O)c2ccc3c4c(ccc(c24)C1=O)C(=O)N(CCCN)C3=O | 0.333 µM | 1.36 µM
9 | Cc1[nH]c2ccc(F)cc2c1-c1nc2c3cccnc3c3ncccc3c2[nH]1 | 0.201 µM | 0.787 µM
10 | CC1=C(CCC(C)NCc2ccc(OCCCN3CCCCC3)cc2)C(C)(C)CCC1 (stereo unspecified) | 1.53 µM | 3.12 µM
11 | O=c1c(O)c(-c2ccc(O)c(O)c2)oc2cc(O)cc(O)c12 | 6.67 µM | 47.2 µM
12 | CC(C)CCNCC(O)Cn1c2ccccc2c2ccccc21 (stereo unspecified) | 1.95 µM | 4.35 µM
13 | Cc1ccc(-c2csc(NC(=O)N3CCN(c4cc5c(cc4F)c(=O)c(C(=O)O)cn5C4CC4)CC3)n2)cc1 | 1.29 µM | 8.17 µM
14 | Cc1nn(-c2ccc(Cl)cc2)c2nc3c(nc12)C(=O)C(=O)c1ccccc1-3 | 13.9 µM | > 100 µM
15 | c1ccc2[nH]c(-c3cc(-c4ccc5c(c4)OCO5)n[nH]3)nc2c1 | 3.57 µM | 17.2 µM
16 | COc1ccc(/C=C(\C(=O)NCc2cccnc2)S(=O)(=O)c2ccccc2)cc1OC | 1.57 µM | 5.27 µM
17 | Cc1cnc(CNC(=O)c2c(=O)c3ccc(N4CCCN(C)CC4)nc3n3c2sc2ccccc23)cn1 | 15.7 µM | 34.8 µM
18 | Cc1nn(C)c(COc2ccc(N3CCN(S(=O)(=O)N(C)C)CC3)cc2)c1-c1cccc2c(CCCOc3cccc4ccccc34)c(C(=O)O)n(CCN3CCOCC3)c12 | 1.91 µM | 5.36 µM
19 | COc1cnc2c(c1)C(=O)c1c-2n(CCCNC2=NCCS2)c(=O)c2cc(Cl)ccc12 | 0.086 µM | 2.18 µM
20 | Cc1nn(-c2ccc([N+](=O)[O-])cc2)c2ncnc(N/N=C/c3ccccc3O)c12 | 1.09 µM | 3.88 µM
21 | COC(=O)Nc1nc2ccc(Oc3cccc(NC(=O)Nc4cc(C(F)(F)F)ccc4F)c3)cc2[nH]1 | 7.87 µM | > 23.1 µM
22 | COc1ccc(C2C(C#N)=C(N)Oc3c2sc2ccc(C)cc32)cc1 (stereo unspecified) | 2.42 µM | 9.74 µM
23 | CC(C)=CCc1c2c(c(O)c3c1O[C@]14C(=C[C@@H]5C[C@H]1C(C)(C)O[C@@]4(C/C=C(/C)C(=O)O)C5=O)C3=O)CC(O)C(C)(C)O2 (stereo partly specified) | 12.1 µM | 27.6 µM
24 | N#Cc1c(NC(=O)c2ccc(F)c(Cl)c2)sc2c1CCC(=O)C2 | 0.387 µM | 1.95 µM
25 | O1[As]2O[As]3O[As]1O[As](O2)O3 | 0.216 µM | 1.26 µM
26 | CCN(CC)c1ccc(/C=N/NC(=O)c2ccc(NS(C)(=O)=O)cc2)cc1 | 0.358 µM | 3.81 µM
27 | CCOC(=O)c1cc2c(n1Cc1cc(OC)c(OC)c(OC)c1)-c1oncc1CCC2 | 0.666 µM | > 83.6 µM

Row | Compound | GI50 | TGI
28 | Cn1cc(-c2csc(-c3cn(CCCN4CCCCC4)c4ccccc34)n2)c2cccnc21 | 1.87 µM | 3.74 µM
29 | C=C1CC[C@@H]2[C@](C)(COC(C)=O)[C@H](OC(C)=O)CC[C@@]2(C)[C@@H]1CC(Nc1ccc(S(=O)(=O)Nc2ccc(Cl)nn2)cc1)C1=CCOC1=O (stereo partly specified) | 1.32 µM | 3.37 µM
30 | Cc1[nH]c(=O)nc(Nc2ccc(Cl)cc2)c1C(=O)N1CCN(CCO)CC1 | 34.8 µM | > 100 µM
31 | CC(C)(C)c1[nH]nc2c1C(c1cc3ccccc3[nH]c1=O)Nc1cc(C(=O)OCc3ccccc3)ccc1N2 (stereo unspecified) | 2.46 µM | 6.74 µM
32 | CC[C@H](CO)Nc1nc(NCc2ccccc2)c2ncn(C(C)C)c2n1 | 15.8 µM | 33.9 µM
33 | NC(=O)c1ccc(-c2nc(-c3ccc4c(c3)OCO4)c(-c3ccccn3)[nH]2)cc1 | > 25 µM and 21.6 µM | > 25 µM and 57 µM
34 | Cc1ccc(-c2nc3nc(-c4ccccc4)nc(N4CCNCC4)c3o2)cc1 | 0.31 µM | 1.23 µM
35 | COC(=O)C1=C(C)NC(C)=C(C(=O)OCC(C)C)C1c1ccccc1[N+](=O)[O-] (stereo unspecified) | 2.83 µM | 9.63 µM
36 | COc1ccc(C2=CC(c3ccc(OC)cc3Br)N3C=CSC3=N2)cc1 (stereo unspecified) | 2.65 µM | 10 µM
37 | CCN1C(=O)N(CC)C2C1NN=c1s/c(=C\c3ccccn3)c(=O)n12 (stereo unspecified) | 0.523 µM | 5.67 µM
38 | NC(=O)Nc1cc(-c2cccc(F)c2)sc1C(=O)N[C@H]1CCCNC1 | 0.591 µM and 0.398 µM | 2.35 µM and 1.64 µM
39 | O=C1c2ccc3c4c(ccc(c24)C(=O)N1CCCNCc1ccccc1Cl)C(=O)N(CCCNCc1ccccc1Cl)C3=O | 0.124 µM | 0.352 µM
40 | Nc1c(C(=O)c2cccc(-c3cccnc3)c2)cnn1-c1ccc(F)cc1F | 2.97 µM | > 25 µM
41 | Cc1ccc(C(=O)NC2CCC2)cc1-c1ccc(C(=O)NCC2CC2)cc1 | > 17.2 µM | > 25 µM
42 | C#CCNCCN1C(=O)c2ccc3c4c(ccc(c24)C1=O)C(=O)N(CCNCC#C)C3=O | 2.25 µM | 10.4 µM
43 | [Cl][Ru].c1ccc(-c2cccc(-c3ccccn3)n2)nc1.c1ccc(-c2ccnc3c2ccc2c(-c4ccccc4)ccnc23)cc1 | 1.31 µM | 3.68 µM
44 | CN(C)c1ccc(C(=NO)c2ccc(N(C)C)cc2)cc1 | 0.716 µM | 4.43 µM
45 | COc1ccc(Cl)c(Nc2nc3ccccc3nc2NS(=O)(=O)c2cccc(NC(=O)C(C)(C)N)c2)c1 | 2.63 µM and 1.62 µM | 14.8 µM and > 10 µM
46 | COc1ccc(C(=O)/C=C/c2cccc(Nc3ccnc4cc(Cl)ccc34)c2)cc1 | 0.576 µM | 3.38 µM
47 | Oc1cccc2ccc(-c3nnc(SCc4ccc(O)c5ncccc45)o3)nc12 | 0.986 µM | 8.49 µM
48 | Nc1ccccc1C#C/C=C\C#Cc1cccc(O)c1 | 1.38 µM | 20.4 µM
49 | COc1ccc(CC(=O)c2ccc(O)cc2O)cc1 | 56.7 µM | > 100 µM
50 | O=C(Nc1ccc(Oc2cccc(F)c2)c(Cl)c1)c1cnccn1 | 0.834 µM | 4.99 µM
51 | COC(=O)c1cc2ccccc2c2c3c(ccc12)OCO3 | 48.8 µM | > 1000 µM
52 | O=C1NOC(c2ccc(O)cc2)(c2ccc(O)cc2)c2ccccc21 | > 100 µM | > 100 µM
53 | Nc1ncnc2c1c(-c1ccc(Oc3ccccc3)cc1)nn2C[C@@H]1SSC[C@H]1O | 0.349 µM | 2.61 µM
